According to the supplement of paper PMC10331698:
± gives the standard deviation of the averaged measurements.

Legend:
Assay in all cases: level (log10 ratio to DMSO vehicle control); higher = higher biomarker level / cell amount than vehicle control
[1] = compound: FC(F)(F)C(F)(F)C(F)(F)C(F)(F)C(F)(F)C(F)(F)C(F)(F)I [1-Iodopentadecafluoroheptane]; conditions: in DMSO
Description: (§1)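 BioMAP Diversity Plus panel of 12 human primary cell co-culture systems (3C, 4H, LPS, SAg, BT, BF4T, BE3C, CASM3C, HDF3CGF, KF3CT, MyoF, Mphg). Compounds were added 1 h before stimulation and left for 24 h (MyoF 48 h; BT 72 h for soluble read-outs or 6 d for IgG). Biomarkers were read by ELISA, cytotoxicity by SRB, PBMC viability and proliferation by Alamar Blue. Each well value was divided by the mean of 8 DMSO control wells on the same plate and log10 transformed; duplicate blinded samples were tested at 4 concentrations.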

[2] = compound: FC(F)(F)C(F)(F)C(F)(F)CC1CO1 [1H,1H-Heptafluorobutyl epoxide]; conditions: in DMSO
Description: as §1

[3] = compound: O=C(O)C=CC(F)(C(F)(F)F)C(F)(F)F [3-(Perfluoroisopropyl)-2-propenoic acid]; conditions: in DMSO
Description: as §1

[4] = compound: FC(F)(F)C(F)(F)CNCC(F)(F)C(F)(F)F [Bis(1H,1H-perfluoropropyl)amine]; conditions: in DMSO
Description: as §1

[5] = compound: C=CC(=O)OCC(F)(F)C(F)(F)C(F)(F)COC(=O)C=C [1H,1H,5H,5H-Perfluoro-1,5-pentanediol diacrylate]; conditions: 6700 nM; in DMSO
Description: as §1

[6] = compound: C=C(C)C(=O)OCCC(F)(F)C(F)(F)C(F)(F)C(F)(F)C(F)(F)C(F)(F)F [6:2 Fluorotelomer methacrylate]; conditions: in DMSO
Description: as §1

| Test System | level (log10) ([1]; 6700 nM) | level (log10) ([1]; 20000 nM) | level (log10) ([2]; 6700 nM) | level (log10) ([2]; 20000 nM) | level (log10) ([2]; 60000 nM) | level (log10) ([3]; 6700 nM) | level (log10) ([3]; 20000 nM) | level (log10) ([3]; 60000 nM) | level (log10) ([4]; 6700 nM) | level (log10) ([4]; 20000 nM) | level (log10) ([4]; 60000 nM) | level (log10) [5] | level (log10) ([6]; 6700 nM) | level (log10) ([6]; 20000 nM) | level (log10) ([6]; 60000 nM) |
| --- | --- | --- | --- | --- | --- | --- | --- | --- | --- | --- | --- | --- | --- | --- | --- |
| LPS:CD40 | 0.0645 ± 0.11 | -0.006 ± 0.15 | 0.0165 ± 0.054 | 0.0105 ± 0.053 | 0.026 ± 0.024 | -0.008 ± 0.0085 | 0.008 ± 0.048 | -0.017 ± 0.079 | 0.041 ± 0.041 | -0.0115 ± 0.047 | -0.0155 ± 0.025 | -0.209 ± 0.024 | -0.022 ± 0.045 | -0.04 ± 0.024 | -0.0335 ± 0.11 |
| BF4T:IL-1alpha | -0.0035 ± 0.0035 | 0.003 ± 0.0014 | 0.0165 ± 0.015 | 0.0095 ± 0.016 | 0.0355 ± 0.053 | -0.002 ± 0.021 | 0.0065 ± 0.011 | 0.012 ± 0.0057 | -0.007 ± 0.014 | -0.0135 ± 0.015 | 0.0105 ± 0.049 | 0.0055 ± 0.036 | -0.025 ± 0.041 | -0.0245 ± 0.025 | -0.0125 ± 0.018 |
| BT:sTNF-alpha | -0.051 ± 0.018 | 0.093 ± 0.17 | -0.042 ± 0.12 | -0.038 ± 0.02 | -0.123 ± 0.19 | -0.0275 ± 0.04 | -0.149 ± 0.1 | -0.028 ± 0.03 | 0.046 ± 0.05 | 0.0265 ± 0.21 | 0.0915 ± 0.12 | -0.94 ± 0.21 | -0.0045 ± 0.0035 | 0.0045 ± 0.012 | -0.068 ± 0.058 |
| BF4T:CCL2/MCP-1 | -0.0105 ± 0.0092 | 0.011 ± 0.02 | 0.005 ± 0.0014 | -0.0095 ± 0.0035 | 0.014 ± 0.0042 | 0.0045 ± 0.023 | 0.003 ± 0.013 | 0.0505 ± 0.076 | -0.004 ± 0.014 | -0.009 ± 0.027 | -0.0295 ± 0.015 | -0.073 ± 0.0099 | 0.0165 ± 0.005 | -0.012 ± 0.014 | 0.002 ± 0.021 |
| BF4T:CXCL8/IL-8 | 0.0515 ± 0.079 | 0.0425 ± 0.044 | 0.023 ± 0.041 | 0.0165 ± 0.03 | 0.0325 ± 0.05 | 0.0055 ± 0.012 | -0.0015 ± 0.0064 | 0.001 ± 0.021 | -0.0295 ± 0.013 | -0.027 ± 0.0028 | -0.0105 ± 0.021 | -0.0315 ± 0.037 | 0.032 ± 0.061 | 0.028 ± 0.037 | 0.0435 ± 0.033 |
| BT:Secreted IgG | -0.006 ± 0.05 | -0.01 ± 0.044 | 0.017 ± 0.038 | -0.0175 ± 0.043 | 0.008 ± 0.033 | -0.041 ± 0.048 | -0.0035 ± 0.016 | -0.0205 ± 0.013 | 0.0095 ± 0.0021 | 0.001 ± 0.023 | 0.0185 ± 0.00071 | -0.565 ± 0.17 | 0.0165 ± 0.00071 | -0.0065 ± 0.005 | -0.0095 ± 0.023 |
| BT:PBMC Cytotoxicity | 0.014 ± 0.0057 | 0.0075 ± 0.049 | 0.0175 ± 0.026 | -0.0025 ± 0.022 | 0.017 ± 0.013 | -0.016 ± 0.0042 | 0.002 ± 0.0042 | 0.021 ± 0.0057 | 0.007 ± 0.013 | 0.005 ± 0.024 | 0.0125 ± 0.013 | -0.201 ± 0.0092 | 0.0045 ± 0.021 | 0.018 ± 0.03 | 0.0285 ± 0.032 |
| BF4T:MMP-9 | -0.0345 ± 0.063 | -0.019 ± 0.013 | 0.0005 ± 0.011 | -0.0055 ± 0.022 | -0.008 ± 0.0085 | 0.0015 ± 0.029 | 0.004 ± 0.0099 | 0.025 ± 0.04 | -0.013 ± 0.0057 | -0.013 ± 0.0042 | 0.0085 ± 0.036 | -0.02 ± 0.021 | -0.0295 ± 0.096 | -0.033 ± 0.028 | -0.028 ± 0.062 |
| LPS:CD106/VCAM-1 | 0.0045 ± 0.016 | -0.005 ± 0.0071 | 0.01 ± 0.017 | 0.0125 ± 0.0064 | 0.002 ± 0.0071 | 0.003 ± 0.018 | -0.023 ± 0.013 | -0.018 ± 0.021 | -0.005 ± 0.0057 | 0.001 ± 0.021 | 0.0065 ± 0.0064 | -0.118 ± 0.071 | 0.0165 ± 0.0092 | -0.0025 ± 0.021 | 0.0055 ± 0.018 |
